From patent US9896718B2, “Herbicide tolerant cotton event pDAB4468.18.07.1” (Dow AgroSciences LLC, priority 2012, dated 2018)
Read-outs that look alike come from different tables or passages of the source.

Experiments:
[1] = system: cotton event pDAB4468.18.07.1; conditions: for % Injury: cotton event pDAB4468.18.07.1, 3 leaf stage
Procedure: The tolerance of cotton event pDAB4468.18.07.1 to postemergence applications of the pyridyloxyacetic acid herbicides, triclopyr and fluroxypyr, was studied in greenhouse trials. Herbicide tolerance was assessed following a single postemergence application of triclopyr or fluroxypyr.
Seeds from cotton event pDAB4468.18.07.1 were heat treated in a water bath at 82.5° C. for 1 minute and then planted in metro mix 360 media and grown in a greenhouse. The temperatures in the greenhouse averaged 27° C. and the photoperiod was set at 16 hours of light and eight hours of dark, with maximum light intensity. Plants were allowed to grow until the 3 leaf stage of development and a non-randomized study was conducted with three replications and three treatments for each herbicide. Plants were sprayed in a track sprayer calibrated to deliver 187 L/ha of the commercial formulations of triclopyr (Garton 4™, Dow AgroSciences, Indianapolis, Ind.) and fluroxypyr (Starane™, Dow AgroSciences, Indianapolis, Ind.). A non-transformed Coker 310 variety of cotton was used as a negative control. Visual injury assessment was taken 3 DAA (days after application) and 11 DAA comparing each rate of herbicide. Injury was assessed visually as percentage of epinastic cotton-plant foliage using a linear percentage scale […] where 0% represents no visible herbicide injury and 100% represents plant death.

[2] = system: non-transformed Coker 310 variety of cotton; experiment: Tolerance to triclopyr and fluroxypyr in greenhouse trials (percent visual injury), negative control plants; assay type: in vivo; conditions: 3 leaf stage
Procedure: Seeds from cotton event pDAB4468.18.07.1 were heat treated in a water bath at 82.5° C. for 1 minute and then planted in metro mix 360 media and grown in a greenhouse. The temperatures in the greenhouse averaged 27° C. and the photoperiod was set at 16 hours of light and eight hours of dark, with maximum light intensity. Plants were allowed to grow until the 3 leaf stage of development and a non-randomized study was conducted with three replications and three treatments for each herbicide. Plants were sprayed in a track sprayer calibrated to deliver 187 L/ha of the commercial formulations of triclopyr (Garton 4™, Dow AgroSciences, Indianapolis, Ind.) and fluroxypyr (Starane™, Dow AgroSciences, Indianapolis, Ind.). A non-transformed Coker 310 variety of cotton was used as a negative control. Visual injury assessment was taken 3 DAA (days after application) and 11 DAA comparing each rate of herbicide. Injury was assessed visually as percentage of epinastic cotton-plant foliage using a linear percentage scale (1-100%) where 0% represents no visible herbicide injury and 100% represents plant death.

[3] = system: cotton event pDAB4468.18.07.1; experiment: Agronomic characterization in field trials with and without herbicide application; assay type: in vivo, Gossypium hirsutum; conditions: standard field application rates, 2010 field trials
Excerpt: The agronomic characteristics of cotton event pDAB4468.18.07.1 were quantified in field trials conducted across geographically different locations throughout the cotton belt in 2010. These studies compared the agronomic performance of cotton event pDAB4468.18.07.1 (with and without applications of the herbicides 2,4-D and glufosinate) to the non-transgenic near-isoline control, Coker 310. No agronomically meaningful unintended differences were observed between cotton event pDAB4468.18.07.1 and the Coker 310 control plants. […] Additionally, the agronomic performance of cotton event pDAB4468.18.07.1 was not altered as a result of the application of the herbicides, 2,4-D and glufosinate, as compared to the cotton event pDAB4468.18.07.1 plants which were not sprayed with the herbicide treatments. […]
Seeds of cotton event pDAB4468.18.07.1 and seeds of the near-isoline control line, Coker 310, were planted at a rate of 80 seeds per 20 ft row with a row spacing of 34-38 inches (86.36 cm-96.52 cm). […] The measured agronomic characteristics were equivalent for cotton event pDAB4468.18.07.1 as compared to the Coker 310 near-isoline control plants for all of the agronomic characteristics measured and statistically analyzed. […]

[4] = system: cotton event pDAB4468.18.07.1; experiment: Tolerance to 2,4-D in field trials (percent visual injury after postemergence application); assay type: in vivo, Gossypium hirsutum; conditions: for Percent visual injury: postemergence, 2-4 leaf cotton, field
Procedure: The application of 2,4-D on cotton plants at this stage of development represents a herbicide application timing typically utilized to achieve satisfactory weed control by cotton growers.
2,4-D tolerance was measured by assessing cotton plants for injury at 0-1 day after application (DAA), 7-8 DAA, 12-16 DAA, and 24-32 DAA. Measurements for the 0-1 day time increment were taken from 6-24 hours after the application. […] The ratings were a composite score for any herbicide symptomology including epinasty, chlorosis, leaf necrosis and plant death. Herbicide symptomology present at 0-1 DAA was primarily epinasty and symptoms at later evaluations were primarily chlorosis and necrosis.
(§1) Field trials were conducted at eleven locations across the United States in typical cotton producing areas of Alabama, Arkansas, California, Georgia, Louisiana, Mississippi, North Carolina, South Carolina, and Tennessee. Trials were designed with four replications per treatment. Each replication was separated by a bare-soil alley 10-15 feet wide. Plot size for individual treatments was 2 rows by 20 feet long with rows typically spaced 36-40 inches apart. Experimental treatments consisted of cotton event pDAB4468.18.07.1 sprayed with 2,4-D amine (Weedar 64™, NuFarm, Burr Ridge, Ill.) at either 0, 1120, 2240, or 4480 grams acid equivalent per hectare (g ae/ha) applied in 15 gallons per acre of final spray solution. A non-transformed cotton comparator treatment was not included in these experiments since treatment with 2,4-D at rates much lower than the lowest rate tested (1120 g ae/ha) are known to result in plant death.

[5] = system: non-transformed cotton; conditions: rates much lower than the lowest rate tested (1120 g ae/ha); known; cited from earlier work
[6] = system: cotton event pDAB4468.18.07.1; experiment: Tolerance to glufosinate in field trials (percent visual injury after postemergence application); assay type: in vivo, Gossypium hirsutum; conditions: for Percent visual injury: postemergence, 6-8 leaf cotton, field
Procedure: Glufosinate tolerance was measured by assessing cotton plants for injury at 2-4 days after application (DAA), 7-9 DAA, 13-19 DAA and 22-29 DAA. […] The ratings were a composite score for any herbicide symptomology including chlorosis, leaf necrosis, stunting and plant death. Herbicide symptomology (where present) was primarily chlorosis and necrosis.
as §1, with “glufosinate ammonium (Ignite 280 SL™, Bayer, Research Triangle, N.C.)” for “2,4-D amine (Weedar 64™, NuFarm, Burr Ridge, Ill.)”, “542, 1084,” for “1120, 2240,”, “2168” for “4480”, “glufosinate” for “2,4-D”, “(542” for “(1120”, “would be expected” for “are known”

With `O=C(O)COc1nc(Cl)c(Cl)cc1Cl` [Triclopyr, triclopyr] the “tolerance of the plants” value ([1]; 3 DAA, greenhouse) was “moderate levels of tolerance”, the “% Injury” value ([1]; 140 g ae/ha, 3 DAA, greenhouse) was 11.8 b % and the “% Injury” value ([1]; 140 g ae/ha, 11 DAA, greenhouse) was 3.0 a %. The “% Injury” value ([1]; 280 g ae/ha, 3 DAA, greenhouse) was 17.0 a %, the “% Injury” value ([1]; 280 g ae/ha, 11 DAA, greenhouse) was 6.3 a % and the “% Injury” value ([1]; 560 g ae/ha, 3 DAA, greenhouse) was 19.3 a %. For the same compound, the “% Injury” value ([1]; 560 g ae/ha, 11 DAA, greenhouse) was 3.5 a %, the “tolerance of the plants compared to the non-transformed control” value ([1]; by 11 DAA, recovered from the initial epinastic response, greenhouse) was “robust tolerance” and the “% Injury” value ([2]; 140 g ae/ha, 3 DAA) was 33.8 a %. For the same compound, the “% Injury” value ([2]; 140 g ae/ha, 11 DAA) was 36.3 b %, the “% Injury” value ([2]; 280 g ae/ha, 3 DAA) was 33.8 a % and the “% Injury” value ([2]; 280 g ae/ha, 11 DAA) was 40.0 ab %. The “% Injury” value ([2]; 560 g ae/ha, 3 DAA) was 36.3 a % and the “% Injury” value ([2]; 560 g ae/ha, 11 DAA) was 48.8 a %.
For `Nc1c(Cl)c(F)nc(OCC(=O)O)c1Cl` [Fluroxypyr, fluroxypyr], the “level of herbicide to which tolerance is provided” value ([1]; in vivo) was “up to 280 g ae/ha”.
In the case of `CNC.O=C(O)COc1ccc(Cl)cc1Cl` [2,4-D], the “agronomic performance of cotton event after herbicide application vs unsprayed plants” value [3] is reported as “not altered”, the “herbicide injury noted in the experiments” value ([4]; 1120-4480 g ae/ha, with the exception of transient epinasty 0-1 DAA) is reported as “no agronomically-significant herbicide injury” and the Percent visual injury ([4]; 1120 g ae/ha, 0-1 DAA) is reported as 5.0%. It also gave a Percent visual injury ([4]; 1120 g ae/ha, 7-8 DAA) of 2.3%, a Percent visual injury ([4]; 1120 g ae/ha, 12-16 DAA) of 1.1% and a Percent visual injury ([4]; 1120 g ae/ha, 24-32 DAA) of 0.0%. It also gave a Percent visual injury ([4]; 2240 g ae/ha, 0-1 DAA) of 11.7%, a Percent visual injury ([4]; 2240 g ae/ha, 7-8 DAA) of 4.9% and a Percent visual injury ([4]; 2240 g ae/ha, 12-16 DAA) of 2.7%. For the same compound, the Percent visual injury ([4]; 2240 g ae/ha, 24-32 DAA) was 0.4%, the “crop injury beyond the 7-8 DAA evaluation interval” value ([4]; 4480 g ae/ha (>4× rate required for broad spectrum weed control)) was “little crop injury” and the Percent visual injury ([4]; 4480 g ae/ha, 0-1 DAA) was 21.0%. For the same compound, the Percent visual injury ([4]; 4480 g ae/ha, 7-8 DAA) was 15.1%, the Percent visual injury ([4]; 4480 g ae/ha, 12-16 DAA) was 8.0% and the Percent visual injury ([4]; 4480 g ae/ha, 24-32 DAA) was 2.2%. The “result of treatment of non-transformed cotton” value [5] was “plant death”.
With `CP(=O)(O)CCC(N)C(=O)O` (stereo not shown) [glufosinate] the “agronomic performance of cotton event after herbicide application vs unsprayed plants” value [3] was “not altered”, the “herbicide injury noted in the experiments” value ([6]; 542-2168 g ae/ha, with the exception of transient chlorosis at 2168 g ae/ha at 2-4 & 7-9 DAA) was “no agronomically-significant herbicide injury” and the Percent visual injury ([6]; 542 g ae/ha, 2-4 DAA) was 3.1%. For the same compound, the Percent visual injury ([6]; 542 g ae/ha, 7-9 DAA) was 2.3%, the Percent visual injury ([6]; 542 g ae/ha, 13-19 DAA) was 0.1% and the Percent visual injury ([6]; 542 g ae/ha, 22-29 DAA) was 0.1%. The Percent visual injury ([6]; 1084 g ae/ha, 2-4 DAA) was 7.6%, the Percent visual injury ([6]; 1084 g ae/ha, 7-9 DAA) was 4.8% and the Percent visual injury ([6]; 1084 g ae/ha, 13-19 DAA) was 0.1%. For the same compound, the Percent visual injury ([6]; 1084 g ae/ha, 22-29 DAA) was 0.0%, the “crop injury beyond the 7-9 DAA evaluation interval” value ([6]; 2168 g ae/ha (>4× rate required for broad spectrum weed control)) was “little crop injury” and the Percent visual injury ([6]; 2168 g ae/ha, 2-4 DAA) was 14.8%. For the same compound, the Percent visual injury ([6]; 2168 g ae/ha, 7-9 DAA) was 10.8%, the Percent visual injury ([6]; 2168 g ae/ha, 13-19 DAA) was 2.2% and the Percent visual injury ([6]; 2168 g ae/ha, 22-29 DAA) was 0.3%.
